Values of other authors, collected in US20180271820A1, “METHODS OF TREATING HEART FAILURE” (priority 2015, published 2018).
Where a name gives a salt, the structure may show the parent alone.

How the values were obtained:
[1] = test system: patients with preserved EF; conditions: GISSI-HF, rosuvastatin or placebo; cited from earlier work
Ehrlich ascites tumor = conditions: mice; cited from earlier work
HFPEF patients = conditions: RELAX trial; cited from earlier work
[2] = cited from earlier work
patients = conditions: 120 mg, 240 mg, daily, BID, and TID; cited from earlier work
[3] = test system: patients with symptomatic heart failure and a preserved ejection fraction; conditions: 3,445 patients, TOPCAT trial; cited from earlier work

CC(C)c1nc(N(C)S(C)(=O)=O)nc(-c2ccc(F)cc2)c1/C=C/[C@@H](O)C[C@@H](O)CC(=O)O [rosuvastatin]
benefit in subgroup of patients with preserved EF [1]: no benefit

O=C(O)/C=C/C(=O)O [Fumaric acid]
growth of the Ehrlich ascites tumor (Ehrlich ascites tumor): inhibits the growth

CCCc1nn(C)c2c(=O)[nH]c(-c3cc(S(=O)(=O)N4CCN(C)CC4)ccc3OCC)nc12 [sildenafil]
primary outcome of functional capacity (HFPEF patients): did not impact

COC(=O)/C=C/C(=O)OC [DMF, dimethyl fumarate]
aqueous solubility [2]: poor | side effect profile across dosages (patients): similar

CC(=O)S[C@@H]1CC2=CC(=O)CC[C@]2(C)[C@H]2CC[C@@]3(C)[C@@H](CC[C@@]34CCC(=O)O4)[C@H]12 [spironolactone]
incidence of primary composite outcome of death from cardiovascular causes, cardiac arrest, or hospitalization for heart failure [3]: did not significantly reduce
